Experiments:
[1] = tested on: IFN-γ, IL-4, IL-17, IL-10; assay: ELISA of CD4+ T cell subset specific cytokines from spleen derived cells of EAE mice after MOG restimulation; type: in vivo, C57BL/6 mice; conditions: N6022, MOG restimulation
Protocol: Female C57BL/6 mice of 8-12 weeks of age, purchased from Jackson Laboratory, were provided with food and water ad libitum and were kept in pathogen free animal care facility of Medical University of South Carolina (MUSC) throughout the study. All procedures were conducted in accordance with accepted standards of humane care as approved by the Institutional Animal Care and Use Committee (Approved number: AR #1644). EAE was induced as described previously (Nath et al., 2009). Briefly, mice were immunized subcutaneously in the flank regions with MOG35-55 peptide (MOG; 200 μg; Peptide International) emulsified (1:1) in 100 ul complete Freund's adjuvant (CFA) on day 0 and day 7. Additionally, 300 ng of Pertussis toxin (Sigma-Aldrich, St. Louis, Mo.) was given on day 0 and day 2 by i.p. injection. Pertussis toxin used as per the standardized protocol reported by us and other investigators for the induction of EAE (Nath et al., 2009). Similarly, healthy control group received subcutaneous injection of PBS and CFA emulsion on day 0 and day 7. Clinical signs of EAE were scored by examiners blinded to experimental treatments using the following scale: 0=no clinical signs of disease; 1=piloerection and sluggish; 2=limp tail (ataxia); 2.5=ataxia with partial hind limb paralysis; 3=full paralysis of hind limb; 3.5=full paralysis of hind limb with paralysis of one fore limb; 4=full paralysis of two limbs; 4.5=moribund stage; 5=death. […] The drug treatments were continued till the termination of the study (day 41 post immunization). EAE animals without drug treatment received PBS. Likewise, healthy controls received vehicle.
Fluorescence flow cytometry analysis for each subset of CD4+ T cells (TH1, TH2, TH17, CD4+CD25+ FOXP3+ Treg, and CD4+CD25+ FOXP3− Treg) were performed based on our previous report with modification (Nath et al., 2004). Briefly, control mice, EAE mice. EAE mice treated with GSNO. […] Following the preparation of single cell suspension, red blood cells were lysed with Pharma lyse buffer (BD Pharmingen™) and the remaining spleen cells were washed with RPMI 1640. The isolated CD4+ T cells were then resuspended with complete RPMI-media in 12-well plates (5×10^6 cells' 2 ml per well) containing MOG peptide (25 μg/ml) for 48 hrs. […] The cell pellets were washed with cell staining solution (ebioscience, Waltham, Mass. USA) and stained with fluorescence labeled antibody specific to IFN-γ for TH1. […] The cells were counted and analyzed using Beackman Coulter instrument (Beckman Coulter, Inc., Brea, Calif., USA).
ELISA assay was performed for analysis of CD4+ T cell subset specific cytokines released from cultured cells or spinal cord tissues. […] The equal amounts of proteins were analyzed for ELISA for IFN-γ. […]

[2] = tested on: protein-associated S-nitrosothiols; assay: Assay for protein-associated S-nitrosylation (biotin-switch) in hBMVECs; type: cell-based, human; conditions: various concentrations, incubated 2 hr
Protocol: Cell culture: Primary human brain microvascular endothelial cells (hBMVECs) were purchased from Angio-Proteomie (Cat #: cAP-0002, Atlanta, Ga.). The cells were cultured in cell culture flasks or plates precoated with Quick Coating Solution (Angio-Proteomie; Cat #: cAP-01) and maintained in Endothelial Growth Medium (Angio-Proteomie; Cat #: cAP-02) at 37° C. under 5% CO2/95% air. When the cells were almost confluent, the medium was replaced with endothelial basal medium (Angio-Proteomie; Cat #: cAP-03) containing 0.5% fetal bovine serum (FBS; Life Technologies, Grand Island, N.Y.) about 8-12 hours before the experiment. No institutional approval was required for this study. The study was not pre-registered.
Assay for protein-associated S-nitrosylation: Protein S-Nitrosylation was analyzed by using biotin-switch method as described in our previous reports (Kim et al., 2014; Prasad et al., 2007). hBMVECs were lysed in 250 mM HEPES, pH 7.7, 1 mM EDTA, 0.1 mM neocuproine, 1% Nonidet P-40, 150 mM NaCl, 1 mM phenylmethanesulfonylfluoride, 20 mM methyl methanethiosulfonate (MMTS), 80 μM carmustine, protease inhibitor mixture (Sigma-Aldrich), and mixed with an equal volume of 25 mM HEPES, pH 7.7, 0.1 mM EDTA, 10 μM neocuproine, 5% SDS, 20 mM MMTS and incubated at 50° C. for 20 min. […] Following acetone precipitation, biotinylated (S-nitrosylated) proteins were analyzed by Western analysis. […]

Compound	IL-10 production from spleen derived cells [1]	production of IFN-γ from spleen derived cells [1]	production of IL-17 from spleen derived cells [1]	IL-4 production from spleen derived cells ([1]; to the control levels)	RhoA S-nitrosylation [2]	cellular levels of protein-associated S-nitrosothiols [2]
Cc1cc(C(N)=O)ccc1-n1c(CCC(=O)O)ccc1-c1ccc(-n2ccnc2)cc1 [N6022, reference compound]	enhanced	decreased	decreased	fully restored	–	–
N[C@@H](CCC(=O)N[C@@H](CSN=O)C(=O)NCC(=O)O)C(=O)O [GSNO, S-nitrosoglutathione]	–	–	–	–	increased	increased

— patent US10925858B2, “S-nitrosoglutathione (GSNO) and GSNO reductase inhibitors for use in therapy” (MUSC FOUNDATION FOR RESEARCH DEVELOPMENT, priority 2017, dated 2021)
